Data published in US9358226B2, “Triarylmethane analogs and their use in treating cancers” (Emory University, priority 2007, dated 2016).
Read-outs that look alike come from different tables or passages of the source.

Assays:
[1] = tested on: P. falciparum D6 (Chloroquine Sensitive); test: Malaria model, chloroquine sensitive P. falciparum; assay type: cell-based
Protocol: (§1) The compounds were tested in a malaria model using both chloroquine sensitive and multidrug resistant P. falciparum. The malaria model was the same as published in JAC Advance Access published online on Jul. 30, 2008, Journal of Antimicrobial Chemotherapy, doi:10.1093/jac/dkn315, the contents of which are hereby incorporated by reference, and the data is summarized in the table below.
(§2) Briefly, the assay involves exposing both chloroquine sensitive and multidrug resistant P. falciparum to the compounds. After one hour of exposure to the highest concentration of the compound, followed by removal of the compound, the growth of all stages of P. falciparum was observed. The reduction in the growth stages was then compared with untreated control parasites. […] The presence of strong inhibition (defined herein as 10% growth) of all parasite stages was evaluated when the parasites were exposed to various concentrations of various compounds.

[2] = tested on: P. falciparum Dd2 (Multidrug Resistant); test: Malaria model, multidrug resistant P. falciparum; assay type: cell-based
Protocol: as §1, §2

T. brucei = test: Parasitemia in mice injected with T. brucei; assay type: in vivo
Protocol: In one study, the parasite was T. brucei. Mice were injected with parasites (5,000 parasites/mouse), and injected (s.c) with imipramine blue (1 mg/mice/day) starting from the day the mice were injected with parasites. The parasitemia level in blood was counted on each following day.
The experiment was repeated with IV administration of imipramine blue (100 μg of imipramine blue). […] Accordingly, it is important to find a therapeutic window (where treatment of parasitemia can be effected, without unwanted toxic effects). This therapeutic window is in the range of between about 150 and 250 μg.

Leishmania amazonensis = test: Leishmaniasis model, in vitro promastigotes, parasites/mL; assay type: cell-based; conditions: for activity in first experiment: 1 and 0.1 mcM (ethanol 0.1 and 0.01%)
Protocol: The experiments were started using water as a solvent for the triarylmethanes (TPM, standing for triphenylmethane). However, water was not an effective solvent, so ethanol was substituted. Ethanol is toxic to leishmania, so a control group was tested with a higher ethanol concentration than that present on the TPM groups.
Each of FIGS. 4-7 has five or six groups with 50, 10, 1 and 0.1 mcM (micromolar) of TPMs (1, 2, 3 and 5) in ethanol, and two control groups: Ethanol 5% (50 mcM) and positive control.
The number of parasites was counted only after 48 hours. Again, an ethanol control at 0.1% was used.
The IC50 was calculated by the method described by Hills et al. (18) and Huber and Koella (19). Briefly, Hills proposed finding two concentrations, X1 and X2, such that the parasite density, Y1, at concentration X1 (and all lower concentrations) was more than half of the density found in the control, Y0, and that the parasite density, Y2, at concentration X2 (and all higher concentrations) was less than half of Y0. The IC50 was then found by linear extrapolation between X1 and X2: log(IC50)=log(X1)|[(Y1−Y0/2)/(Y1−Y2)][ log(X2)−log(X1)].
Compounds TPM 6 (MW=400.60), TPM 7 (MW=672.86), TPM 9 (MW=521.76) and TPM 10 (MW=662.95) were evaluated with the same methodology. They were tested using a maximum of 1% of ethanol in each treatment group. The ethanol control was also evaluated with the same concentration (1%).
The treatment groups were TPM 6 at a dosage of 0.05; 0.01; 0.005 and 0.001 mcM.

ang-2 mRNA = test: Quantitative reverse transcription-PCR for ang-2 in bEnd.3 cells; assay type: cell-based, murine; conditions: 10 μM, 6.5 hours
Protocol: bEnd.3 cells were seeded equally into six T-75 flasks and 24 hours later were treated with 0, 1, 5, 10, 15, and 20 μM concentrations of gentian violet (Sigma-Aldrich, no. G2039) in ethanol for 6.5 hours. RNA was extracted and purified using TRI reagent (Sigma-Aldrich, T9424) and measured using spectrophotometer (Perkin-Elmer UV/VIS, Wellesley, Mass.). RNA (1 μg) was used for DNase Amplification (Invitrogen, no. 18068-015, Carlsbad, Calif.) followed by first-strand synthesis for reverse transcription-PCR (Invitrogen SuperScript, no. 12371-019). 96-well Optical Reaction Plate (ABI PRISM, no. 128, Applied Biosystems, Foster City, Calif.) was used for the reverse transcription-PCR reaction. A measure of 2.5 μl of template, which had been diluted 1:10 in crosslinked water, was used in each well and the experiment was performed in triplicate. Ang pt2 (Applied Biosystems, Taqman Gene Expression Assay, Mm00545822_ml) and 18S (Applied Biosystems Taqman Gene Expression Assay, Hs99999901_sl) primers were used along with crosslinked molecular grade water (Cellgro, Mediatech, Inc., Herndon, Va.) and master mix (Applied Biosystems TaqMan Fast Universal PCR Master Mix (2^x)). The reaction was run on the 7900 Applied Biosystems Reader for Absolute Quantification for 96-well plates. C values were analyzed by ΔΔCt method, and the standard error of the mean was calculated (FIG. 3b). The same protocol was used for treatment with brilliant green (Sigma, no. B6756), except that the concentrations used were 0, 0.1, 0.25, 0.5, and 0.75 μM (FIG. 3a).

myeloma cells [3] = test: Western blotting of myeloma cells; assay type: cell-based
Protocol: (§3) Imipramine blue was obtained from the department of dermatology, Emory University. MTT assays for myeloma cells (MM.1S, MM.1R, RPMI8226, and U266) were used to evaluate the cell viability. AnnexinV staining and cell cycle analysis was done by flow cytometry to assess the level of apoptosis and analyze cell cycle arrest. Western blotting was performed using antibodies to analyze the impact of imipramine blue on various targets. Bone marrow from myeloma patients were obtained with consent from the Winship Cancer Institute.

[4] = tested on: leukemia and lymphoma cell lines; test: Cell growth inhibition in leukemia and lymphoma cell lines; assay type: cell-based
HIF2a = HIF2a expression model (quantitative RT-PCR); assay type: cell-based; conditions: WM35 PKB cells, 5 micromolar, 24 hours
Protocol: In this expression model, WM35 PKB cells are exposed to 5 micromolar of test compounds for 24 hours. At the end of this period, cells are harvested for RNA, which is then reverse transcribed into cDNA, and levels of HIF2a message are quantified using quantitative RT-PCR and corrected for a housekeeping RNA message.

[5] = tested on: bloodstream form of T. brucei; test: Bloodstream form of T. brucei, live cells, overnight treatment; assay type: cell-based; conditions: at 500 nm
Protocol: These and other compounds were tested on live cells.
The experiment was conducted with one million cells of the bloodstream form of T. brucei. After over night treatment with different compounds (at concentrations of 50 and 100 μmolar), cells were counted and plotted with controls.

[6] = tested on: myeloma cells (MM.1S, MM.1R, RPMI8226, and U266); test: MTT cell viability assay, myeloma cells; assay type: cell-based
Protocol: as §3

[7] = tested on: CD38 positive population of primary cells from myeloma patients; test: Primary cells from myeloma patients, cell killing; assay type: cell-based, human; conditions: alone as a single agent or in combination with bortezomib
Protocol: as §3

[8] = ESR spectrum with superoxide dismutase; conditions: room temperature ESR, conditions as in Li et al.
Protocol: Li used ESR to confirm the production of NADPH-dependent.O2—by isolated endosomes (Li et al., Molecular and Cellular Biology, January 2006, p. 140-154, 26(1):140-154 (2006)). ESR assays were conducted at room temperature using a Bruker model EMX ESR spectrometer (Bruker). Vesicular fractions from each sample were mixed with the spin trap, 50 mM 5,5-dimethyl-1-pyrroline N-oxide (DMPO), in a total volume of 500 μl of PBS, pH 7.4. This solution contained iminodiacetic acid-chelating resin (10 ml/liter; Sigma-Aldrich). The reaction was initiated by adding NADPH to 100 μM and was immediately placed into the ESR spectrometer. DMPO-hydroxyl radical adduct formation was assayed for 10 min. Instrument settings were as follows: receiver gain, 1×10^6; modulation frequency, 100 kHz; microwave power, 40.14 mW; modulation amplitude, 1.0 G; and sweep rate, 1 G/s.

myeloma cells [9] = test: AnnexinV staining and cell cycle analysis by flow cytometry; assay type: cell-based
Protocol: as §3

[10] = 48 hours, linear extrapolation method of Hills
[11] = summary table of experiments 1-4

In the case of `CCN(CC)CCCC(C)Nc1ccnc2cc(Cl)ccc12` (stereo not drawn) [Chloroquine, reference compound], the IC50 ([1]; Plasmodium falciparum, D6, read-out: IC50 (nM) vs P. falciparum D6 (Chloroquine Sensitive)) is reported as 7.9 nM and the IC50 ([2]; Plasmodium falciparum, DD2, read-out: IC50 (nM) vs P. falciparum Dd2 (Multidrug Resistant)) is reported as 140 nM.
For `CCN(CC)c1ccc(C(=C2C=C3CCc4ccccc4N(CCCN(C)C)C3=CC2)c2ccc(N(CC)CC)cc2)cc1` [TPM 2], the “number of parasite/ml of blood versus control” value (T. brucei; s.c. 1 mg/mice/day from day of infection) was “slightly less”, the “survival of infected mice” value (T. brucei; s.c. 1 mg/mice/day from day of infection, 5,000 parasites/mouse) was “died at day 4” and the “activity in first experiment” value (Leishmania amazonensis) was “have shown activity”. For the same compound, the growth inhibition (Leishmania amazonensis; 1 mcM, 48 hours) was 72%, the IC50 (Leishmania amazonensis; [10]) was roughly 600 nM and the IC50 (Leishmania amazonensis; [11]) was 600 nM.
For `CCN(CC)c1ccc(C(=C2C=CC3C(C[C@H](N)C(=O)O)=CNC3=C2)c2ccc(N(CC)CC)cc2)cc1` (stereo partly drawn) [TPM 5], the “activity in first experiment” value (Leishmania amazonensis) was “did not”.
With `CCN(CC)c1ccc(C(=C2C=CC(C)C=C2)c2ccc(N(CC)CC)cc2)cc1` (stereo not drawn) [TPM 6] the IC50 ([1]; D6; read-out: IC50 (nM) vs P. falciparum D6 (Chloroquine Sensitive)) was 61.7 nM, the “active / inactive in the malaria assay” value ([1]; summary over D6 and Dd2 strains) was “active” and the “relative activity among compounds tested” value (Leishmania amazonensis) was “most active compound”. The growth inhibition (Leishmania amazonensis; 0.01 mcM, 48 hours) was 41%, the growth inhibition (Leishmania amazonensis; 0.05 mcM, 48 hours) was 59% and the growth inhibition (Leishmania amazonensis; 0.1 mcM, 48 hours) was 98%. The growth inhibition (Leishmania amazonensis; 0.5 mcM, 48 hours) was 98%, the growth inhibition (Leishmania amazonensis; 1 mcM, 48 hours) was 100% and the growth inhibition (Leishmania amazonensis; 5 mcM, 48 hours) was 100%. It also gave an IC50 (Leishmania amazonensis; [10]) of roughly 20 nM, an IC50 (Leishmania amazonensis; [11]) of 20 nM and an IC50 ([2]; Dd2; read-out: IC50 (nM) vs P. falciparum Dd2 (Multidrug Resistant)) of 48.9 nM.
With `c1ccc([I+]c2ccccc2)cc1` [DPI, diphenyliodonium] the “decrease in ang-2 expression compared to control” value (ang-2 mRNA) was 80%.
For `CCN(CC)c1ccc(C(c2ccc(N(CC)CC)cc2)=c2ccc3c(c2)CCc2ccccc2[N+]=3CCCN(C)C)cc1` [TPM 2], the lethality to mice (T. brucei; 1 mg IV) was “killed the mice”, the decrease in parasitemia (T. brucei; IV, 100 μg, mouse model) was 70% and the “cleavage of procaspases (caspase 8, 9, 3 and PARP)” value (myeloma cells [3]; 0.5 μM to 10 μM, about 48 hrs) was “extensively cleaved”. For the same compound, the phos-AKT level (myeloma cells [3]; MM.1S) was “not significantly reduced”, the “phos-p53 and GADD45 levels” value (myeloma cells [3]; MM.1S) was “upregulaed” and the cell growth [4] was “induced cell growth inhibition”. The “inhibition of HIF2a expression” value (HIF2a) was “around 90%”, the IC50 ([1]; Plasmodium falciparum, D6; read-out: IC50 (nM) vs P. falciparum D6 (Chloroquine Sensitive)) was roughly 2500 nM and the “cell toxicity to trypanosome toxicity” value [5] was “favorable”. For the same compound, the “growth advantage by cytokines IL-6 and IGF1” value ([6]; MM.1S cells) was “overcomes the growth advantage”, the “combination with bortezomib or perifosine” value ([6]; myeloma cells) was “additive benefit in combination” and the growth inhibition ([6]; treated up to 72 hrs, between 6 uM to 10 μM) was “more than 80%”. For the same compound, the “cell killing of CD38 positive population” value [7] was “very significant cell killing”, the IC50 ([2]; Plasmodium falciparum, DD2; read-out: IC50 (nM) vs P. falciparum Dd2 (Multidrug Resistant)) was 826 nM and the “radical formation with superoxide (ESR)” value [8] was “appear to form a radical by reacting with superoxide”. The cell cycle profile (myeloma cells [9]; MM.1S cells) was “induces both cell cycle arrests as well as apoptosis” and the “apoptosis by annexin V staining” value (myeloma cells [9]; similar concentrations (6 uM to 10 μM)) was “induced to undergo apoptosis”.
